Like-named read-outs stand apart in the source and are kept apart here.
Tests used:
[1] = target: T1, hCA I (Homo sapiens, UniProt P00915); conditions: stopped flow; cited from earlier work
T1 construct: made in house

[2] = target: T2, hCA IV (Homo sapiens, UniProt P22748); assay: stopped flow CO2 hydrase assay, hCA IV; format: biochemical; conditions: mean from 3 assays, errors ± 5%–10%
T2 construct: made in house

[3] = target: T3, hCA XII (Homo sapiens, UniProt O43570); assay: stopped flow CO2 hydrase assay, hCA XII; format: biochemical
T3 construct: made in house
T3 sequence (O43570 25-354): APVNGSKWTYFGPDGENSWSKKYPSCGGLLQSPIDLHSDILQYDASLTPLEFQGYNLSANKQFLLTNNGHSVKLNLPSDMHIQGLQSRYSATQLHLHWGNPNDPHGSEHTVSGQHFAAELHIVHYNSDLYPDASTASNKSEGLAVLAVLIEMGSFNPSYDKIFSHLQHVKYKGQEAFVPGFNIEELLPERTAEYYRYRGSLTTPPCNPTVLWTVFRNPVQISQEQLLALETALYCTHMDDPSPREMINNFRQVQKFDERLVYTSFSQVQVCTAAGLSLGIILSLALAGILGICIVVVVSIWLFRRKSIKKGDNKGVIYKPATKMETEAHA

[4] = test system: porcine retinal arteries; assay: small vessel myography of wall tension in isolated retinal artery segments pre-contracted with U-46619; format: cell-based; conditions: for wall tension reached after dilation: final level (slower phase for compound 4); for EC50: Sus scrofa, best fit to concentration-response curves, arteries pre-contracted with 10^−6 M U-46619, read-out: mean EC50 of vasodilation; for vasodilation in a single representative experiment, percent of maximum contraction / mean dilation as percentage of the maximum contraction induced by U-46619: single dose of 10^−3 M; for vasodilation in a single representative experiment, percent of maximum contraction: pre-contracted with 10^−6 M U-46619; for mean dilation as percentage of the maximum contraction induced by U-46619: mean ± SEM; for peak wall tension after U-46619: 10^−6 M
[5] = target: T4, hCA II (Homo sapiens, UniProt P00918); design: method as in PMID 16996620; conditions: stopped flow; cited from earlier work
T4 construct: made in house

[6] = target: T5, hCA IX (Homo sapiens, UniProt Q16790); assay: stopped flow CO2 hydrase assay, hCA IX; format: biochemical; conditions: mean from 3 assays, errors ± 5%–10%
T5 construct: made in house

[7] = target: T1, hCA I; assay: stopped flow CO2 hydrase assay, hCA I; format: biochemical; conditions: mean from 3 assays, errors ± 5%–10%
[8] = target: T4, hCA II; assay: stopped flow CO2 hydrase assay, hCA II; format: biochemical; conditions: mean from 3 assays, errors ± 5%–10%

T1 sequence (P00915 whole entry): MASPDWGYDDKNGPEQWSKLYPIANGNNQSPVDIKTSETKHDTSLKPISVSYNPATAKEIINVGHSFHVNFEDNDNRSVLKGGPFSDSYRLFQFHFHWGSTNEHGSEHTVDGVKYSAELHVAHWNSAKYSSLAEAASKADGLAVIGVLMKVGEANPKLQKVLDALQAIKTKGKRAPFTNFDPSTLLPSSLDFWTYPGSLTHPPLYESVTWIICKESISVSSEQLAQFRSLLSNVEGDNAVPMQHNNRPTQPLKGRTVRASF
T2 sequence (P22748 19-312): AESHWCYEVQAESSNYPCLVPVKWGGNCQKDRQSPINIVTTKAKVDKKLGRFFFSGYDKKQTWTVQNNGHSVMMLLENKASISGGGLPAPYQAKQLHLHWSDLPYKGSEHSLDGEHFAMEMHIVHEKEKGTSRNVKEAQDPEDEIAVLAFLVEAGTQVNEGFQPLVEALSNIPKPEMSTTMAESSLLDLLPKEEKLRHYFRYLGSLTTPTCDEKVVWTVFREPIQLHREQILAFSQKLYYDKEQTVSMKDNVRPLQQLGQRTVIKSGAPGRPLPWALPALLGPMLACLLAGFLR

C#CCOc1ccc2ccc(=O)oc2c1 [Compound 5]
Ki [1]: > 10 µM
Ki [2]: 0.0764 µM
times less effective than 4 against hCA XII ([3]; ratio of KI values versus compound 4): 12.9 times
wall tension reached after dilation ([4]; 10^−3 M, one vessel): 0.77 mN/mm
EC50 [4]: 4.12 µM
vasodilation in a single representative experiment, percent of maximum contraction ([4]; one vessel): 140%
mean dilation as percentage of the maximum contraction induced by U-46619 [4]: 116.5% ± 1.7%
Ki [5]: > 10 µM

CCN[C@H]1C[C@H](C)S(=O)(=O)c2sc(S(N)(=O)=O)cc21 [Compound 2, Dorzolamide, reference compound]
vasodilation in a single representative experiment, percent of maximum contraction ([4]; one vessel): 33%
mean dilation as percentage of the maximum contraction induced by U-46619 [4]: 69.7% ± 5.7%

NS(=O)(=O)c1nnc(NS(=O)(=O)c2ccccc2)s1 [Compound 1, Benzolamide, reference compound]
Ki [2]: 0.012 µM
final dilation when added after DZA dilation had reached a steady level ([4]; 10^−3 M BZA added on top of 10^−3 M DZA, one vessel (Figure 2B)): 100%
EC50 [4]: 84.3 µM
vasodilation in a single representative experiment, percent of maximum contraction ([4]; one vessel): almost complete inhibition
mean dilation as percentage of the maximum contraction induced by U-46619 [4]: 78.4% ± 8.5%

C#CCOc1ccc2oc(=O)ccc2c1 [Compound 4]
wall tension after initial very fast phase of dilation ([4]; 10^−3 M, one vessel, peak constriction 1.63 mN/mm (Figure 3B)): about 0.66 mN/mm
wall tension reached after dilation ([4]; 10^−3 M, one vessel): about 0.36 mN/mm
EC50 [4]: 134 µM
vasodilation in a single representative experiment, percent of maximum contraction ([4]; one vessel): 101%
mean dilation as percentage of the maximum contraction induced by U-46619 [4]: 98.8% ± 6.1%

C#CCNc1ccc2c(C)cc(=O)oc2c1 [Compound 6]
Ki [6]: 0.474 µM
Ki [7]: > 10 µM
Ki ([3]; mean from 3 assays, errors ± 5%–10%): 0.0445 µM
EC50 [4]: 101 µM
vasodilation in a single representative experiment, percent of maximum contraction ([4]; one vessel): 96.8%
mean dilation as percentage of the maximum contraction induced by U-46619 [4]: 99.5% ± 1.2%
Ki [8]: > 10 µM

CCCCC[C@H](O)/C=C/[C@@H]1[C@@H](C/C=C\CCCC(=O)O)[C@H]2CO[C@@H]1C2 [Compound U-46619, 9,11-dideoxy-9 α,11α methanoepoxy prostaglandin F2α, reference compound]
peak wall tension after U-46619 ([4]; Figure 2A, baseline 0.4 mN/mm): about 1.75 mN/mm
peak wall tension after U-46619 ([4]; Figure 3A, baseline 0.6 mN/mm): 2.4 mN/mm
peak wall tension after U-46619 ([4]; Figure 3B, baseline about 0.38 mN/mm): 1.63 mN/mm
peak wall tension after U-46619 ([4]; Figure 4A, baseline 1.54 mN/mm): 3.38 mN/mm
peak wall tension after U-46619 ([4]; Figure 4B, baseline 0.95 mN/mm): 2.21 mN/mm

C#CCN(CC#C)CCc1ccc(S(N)(=O)=O)cc1 [Compound 3]
Ki [6]: 0.0557 µM
Ki [7]: 4.01 µM
EC50 [4]: 188 µM
vasodilation in a single representative experiment, percent of maximum contraction ([4]; one vessel): 91%
mean dilation as percentage of the maximum contraction induced by U-46619 [4]: 102.2% ± 3.7%
Ki [8]: 0.0058 µM

Source: publication PMC6387369, “Carbonic Anhydrase Inhibitors of Different Structures Dilate Pre-Contracted Porcine Retinal Arteries” (International Journal of Molecular Sciences, 2019)
